Converted amounts (≈) assume the structure as drawn. The source made the active and inactive calls. No cut-off for these calls is given here.
Tests used:
[1] = Metabolic stability in mouse kidney assessed as parent compound remaining measured after 4 hrs by UPLC-MS analysis; assay type: ADME, tissue-based; settings: read-out: Stability
[2] = molecular target: Voltage-gated inwardly rectifying potassium channel KCNH2 (Homo sapiens, UniProt Q12809); test: Inhibition of hERG; assay type: toxicity; settings: human
Voltage-gated inwardly rectifying potassium channel KCNH2, sequence (Q12809 whole entry): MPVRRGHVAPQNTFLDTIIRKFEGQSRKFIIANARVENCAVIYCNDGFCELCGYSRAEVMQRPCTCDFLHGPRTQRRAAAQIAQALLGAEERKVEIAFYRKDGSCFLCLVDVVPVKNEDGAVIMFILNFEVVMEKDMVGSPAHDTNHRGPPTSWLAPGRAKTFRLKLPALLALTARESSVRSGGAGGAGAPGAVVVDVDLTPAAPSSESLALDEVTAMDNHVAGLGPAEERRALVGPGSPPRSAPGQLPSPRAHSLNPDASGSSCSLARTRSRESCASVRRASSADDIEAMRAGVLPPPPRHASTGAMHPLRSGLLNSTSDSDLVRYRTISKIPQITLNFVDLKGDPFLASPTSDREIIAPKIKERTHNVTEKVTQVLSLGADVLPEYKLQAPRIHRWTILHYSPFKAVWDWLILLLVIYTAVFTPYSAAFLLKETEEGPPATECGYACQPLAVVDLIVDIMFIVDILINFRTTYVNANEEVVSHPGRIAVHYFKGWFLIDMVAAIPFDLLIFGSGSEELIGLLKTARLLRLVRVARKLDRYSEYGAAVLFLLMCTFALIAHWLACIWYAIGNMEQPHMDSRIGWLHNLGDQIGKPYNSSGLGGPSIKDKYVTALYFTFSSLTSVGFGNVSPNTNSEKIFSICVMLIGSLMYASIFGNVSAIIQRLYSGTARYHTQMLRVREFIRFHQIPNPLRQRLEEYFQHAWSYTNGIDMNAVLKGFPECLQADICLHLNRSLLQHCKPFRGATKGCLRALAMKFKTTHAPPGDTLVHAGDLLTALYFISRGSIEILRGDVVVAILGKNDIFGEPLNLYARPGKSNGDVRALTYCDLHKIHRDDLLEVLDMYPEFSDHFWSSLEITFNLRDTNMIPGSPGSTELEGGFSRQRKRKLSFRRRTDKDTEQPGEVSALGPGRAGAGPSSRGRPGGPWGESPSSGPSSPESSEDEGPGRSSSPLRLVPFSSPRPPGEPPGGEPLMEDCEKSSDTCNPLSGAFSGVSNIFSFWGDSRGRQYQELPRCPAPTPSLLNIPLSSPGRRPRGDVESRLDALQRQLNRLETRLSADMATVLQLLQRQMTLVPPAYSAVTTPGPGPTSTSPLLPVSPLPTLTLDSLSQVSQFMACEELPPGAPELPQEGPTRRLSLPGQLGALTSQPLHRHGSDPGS

Klebsiella pneumoniae [3] = test: Antibacterial activity against wild type Klebsiella pneumoniae ATCC 13883 assessed as reduction in microbial growth incubated for 20 to 22 hrs by CLSI based analysis; assay type: functional; settings: time 20-22 hrs
[4] = Cytotoxicity against human HEK cells assessed as inhibition of cell growth at 30 uM incubated for 40 hrs by celltiterglo assay; assay type: toxicity, cell-based
Escherichia coli [5] = test: Antibacterial activity against multidrug-resistant Escherichia coli MG1655 harboring tolC mutant assessed as bacterial growth inhibition incubated for 20 to 22 hrs by CLSI based analysis; assay type: functional; settings: time 20-22 hrs
[6] = AUClast in Swiss mouse plasma at 3 mg/kg, iv measured upto 24 hrs by LC-MS/MS analysis; assay type: ADME, organism-based; design: time < 24 hrs, dose 3 mg/kg, route iv
Proteus mirabilis = test: Antibacterial activity against multidrug-resistant Proteus mirabilis ATCC 7002 assessed as bacterial growth inhibition incubated for 20 to 22 hrs by CLSI based analysis; assay type: functional; settings: time 20-22 hrs
[7] = Protein binding in human plasma assessed as free fraction; assay type: ADME, cell-free
Klebsiella pneumoniae [8] = test: Antibacterial activity against multidrug-resistant Klebsiella pneumoniae BAA2473 assessed as bacterial growth inhibition incubated for 20 to 22 hrs by CLSI based analysis; assay type: functional; settings: time 20-22 hrs
Escherichia coli [9] = test: Antibacterial activity against Escherichia coli ATCC 35218 infected in Swiss albino mouse model of Septicaemia infection assessed as log reduction in Septicaemia in blood at 1 mg/kg , iv preincubated for 4 hrs followed by bacterial infection and measured after 4 hrs post infection; assay type: functional; settings: time 8 hrs
Escherichia coli [10] = test: Antibacterial activity against Escherichia coli ATCC 25922 infected in Swiss albino mouse model of Septicaemia infection assessed as log reduction in Septicaemia in blood at 0.1 to 10 mg/kg , iv preincubated for 4 hrs followed by bacterial infection and measured after 4 hrs post infection; assay type: functional; settings: dose 0.1-10 mg/kg, time 8 hrs
Klebsiella pneumoniae [11] = test: Antibacterial activity against multidrug-resistant Klebsiella pneumoniae NR-48977 assessed as bacterial growth inhibition incubated for 20 to 22 hrs by CLSI based analysis; assay type: functional; settings: time 20-22 hrs
Acinetobacter baumannii = test: Antibacterial activity against wild type Acinetobacter baumannii ATCC 19606 assessed as reduction in microbial growth incubated for 20 to 22 hrs by CLSI based analysis; assay type: functional; settings: time 20-22 hrs
Klebsiella pneumoniae [12] = test: Antibacterial activity against multidrug-resistant Klebsiella pneumoniae BAA2146 assessed as bacterial growth inhibition incubated for 20 to 22 hrs by CLSI based analysis; assay type: functional; settings: time 20-22 hrs
Citrobacter freundii = test: Antibacterial activity against multidrug-resistant Citrobacter freundii ATCC 8090 assessed as bacterial growth inhibition incubated for 20 to 22 hrs by CLSI based analysis; assay type: functional; settings: time 20-22 hrs
[13] = Toxicity in Swiss albino mouse at 10 mg/kg, iv measured after 1 hr; assay type: organism-based; settings: in vivo
Escherichia coli [14] = test: Antibacterial activity against Escherichia coli ATCC 35218 harboring SbmA assessed as reduction in microbial growth incubated for 20 to 22 hrs by CLSI based analysis; assay type: functional; settings: time 20-22 hrs
[15] = Cmax in Swiss mouse lung at 3 mg/kg, iv measured upto 24 hrs by LC-MS/MS analysis; assay type: ADME, organism-based; design: time < 24 hrs, dose 3 mg/kg, route iv
Klebsiella pneumoniae [16] = test: Antibacterial activity against Klebsiella pneumoniae ATCC 13883 infected in Swiss albino mouse thigh infection model at 10 mg/kg, iv measured after 1 hr; assay type: functional, organism-based

## CO[C@@H](CNC(=O)[C@H](NC(=O)[C@H](O)[C@H](C)O)[C@H](O)c1cncn1C)[C@H](O)[C@H](O)C(=O)N(C)[C@@H](Cc1ccccc1)C(=O)NCC(=O)N[C@H](C(=O)N[C@@H](CO)C(=O)N[C@H](C(=O)N[C@H](C(=O)N[C@@H](CC(=O)O)C(=O)N1CCC[C@H]1C(=O)NCc1cc(=O)c(O)cn1O)C(C)(C)C)C(C)(C)O)C(C)(C)O
[1]
  remaining at 4 h: 91%
[2]
  inhibition (INH): Not Active
Klebsiella pneumoniae [3]
  MIC: 0.03 µg/mL
[4]
  Activity: Non-Toxic
Escherichia coli [5]
  MIC: 0.01 µg/mL (≈ 0.00691 µM)
[6]
  AUC(0-t) at 24 h: 2860 ng·h/mL
Proteus mirabilis
  MIC: 0.12 µg/mL (≈ 0.0829 µM)
[7]
  fraction unbound: 0.26
Klebsiella pneumoniae [8]
  MIC: 4 µg/mL (≈ 2.76 µM)
Escherichia coli [9]
  Activity: -3.8 log10CFU
Escherichia coli [10]
  log(activity): 3
Klebsiella pneumoniae [11]
  MIC: 4 µg/mL (≈ 2.76 µM)
Acinetobacter baumannii
  MIC: 0.03 µg/mL
Klebsiella pneumoniae [12]
  MIC: 0.12 µg/mL (≈ 0.0829 µM)
Citrobacter freundii
  MIC: 2 µg/mL (≈ 1.38 µM)
[13]
  Activity: Non-Toxic
Escherichia coli [14]
  MIC: 0.12 µg/mL
[15]
  Cmax: 2420 ng/mL
Klebsiella pneumoniae [16]
  Activity: Active

Source: ChEMBL document CHEMBL5356971, “Optimization of the Antibacterial Spectrum and the Developability Profile of the Novel-Class Natural Product Corramycin” (J Med Chem, 2023)
